From ChEMBL document CHEMBL1649377, “Synthesis, biological assessment and molecular modeling of new dihydroquinoline-3-carboxamides and dihydroquinoline-3-carbohydrazide derivatives as cholinesterase inhibitors, and Ca channel antagonists” (Eur J Med Chem, 2011)
pIC50: −log10 of the molar value.

Key:
[1] = biological target: Cholinesterase (Equus caballus, UniProt P81908); assay: Inhibition of horse serum BChE after 15 mins by Ellman's method
[2] = biological target: Acetylcholinesterase (Electrophorus electricus, UniProt O42275)
Chain of Acetylcholinesterase (O42275 whole entry): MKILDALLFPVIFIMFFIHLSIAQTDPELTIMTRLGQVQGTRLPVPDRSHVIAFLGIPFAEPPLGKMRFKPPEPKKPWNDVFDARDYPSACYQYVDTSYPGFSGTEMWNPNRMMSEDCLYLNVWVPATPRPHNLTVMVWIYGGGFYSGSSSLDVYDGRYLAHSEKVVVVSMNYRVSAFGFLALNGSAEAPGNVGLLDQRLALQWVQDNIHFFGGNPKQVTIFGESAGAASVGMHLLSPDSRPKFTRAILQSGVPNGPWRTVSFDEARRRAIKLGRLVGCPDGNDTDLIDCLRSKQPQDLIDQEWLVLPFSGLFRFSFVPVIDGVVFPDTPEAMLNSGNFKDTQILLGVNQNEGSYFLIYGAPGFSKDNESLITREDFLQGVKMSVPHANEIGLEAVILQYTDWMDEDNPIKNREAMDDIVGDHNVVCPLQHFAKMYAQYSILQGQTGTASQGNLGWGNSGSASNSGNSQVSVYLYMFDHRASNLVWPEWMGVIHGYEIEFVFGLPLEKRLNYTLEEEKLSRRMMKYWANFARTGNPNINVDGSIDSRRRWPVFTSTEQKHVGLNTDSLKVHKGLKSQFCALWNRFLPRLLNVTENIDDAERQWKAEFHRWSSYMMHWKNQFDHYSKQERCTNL
Description: Inhibition of electric eel AChE after 15 mins by Ellman's method

Chain of Cholinesterase (P81908 whole entry): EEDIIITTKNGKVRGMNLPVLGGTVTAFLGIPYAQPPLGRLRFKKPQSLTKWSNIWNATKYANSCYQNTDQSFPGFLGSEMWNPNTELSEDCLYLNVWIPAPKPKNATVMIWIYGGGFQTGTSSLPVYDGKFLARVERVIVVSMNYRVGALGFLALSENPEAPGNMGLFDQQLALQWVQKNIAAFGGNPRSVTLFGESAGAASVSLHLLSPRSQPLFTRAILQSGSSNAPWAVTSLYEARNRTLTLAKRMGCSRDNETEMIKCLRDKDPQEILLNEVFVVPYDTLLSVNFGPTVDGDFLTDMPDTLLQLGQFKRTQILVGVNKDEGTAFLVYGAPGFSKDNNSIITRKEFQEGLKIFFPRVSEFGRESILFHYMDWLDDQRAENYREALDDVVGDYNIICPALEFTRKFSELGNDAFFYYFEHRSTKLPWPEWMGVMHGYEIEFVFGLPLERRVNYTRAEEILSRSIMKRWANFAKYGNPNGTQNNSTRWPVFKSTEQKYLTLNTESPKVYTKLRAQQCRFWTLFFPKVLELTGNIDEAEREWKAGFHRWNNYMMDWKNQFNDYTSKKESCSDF

Compound	pIC50 [1]	pIC50 [2]
NCCNCCNCCNC(=O)c1c(O)c2ccccc2[nH]c1=O	4.72	4.89
Cn1c(=O)c(C(=O)NCCNCCNCCN)c(O)c2ccccc21	5.28	< 4.52
O=C(N/N=C/c1ccc(O)cc1O)c1c(O)c2c(Cl)cccc2[nH]c1=O	< 4.52	4.92
CC1=C2C(=O)Nc3c(cccc3[N+](=O)[O-])C2NC(=O)N1C (racemic)	< 4.52	5.10
CCN1C(=O)NC2C(=C1C)C(=O)Nc1c2cccc1[N+](=O)[O-] (racemic)	< 4.52	5.22
